Laboratory results reported in US20250152585A1, “PHARMACEUTICAL COMPOUND” (Duke Street Bio Limited, priority 2022, published 2025).
Read-outs that look alike come from different tables or passages of the source.

Legend:
[1] = target: T1, N-terminally FLAG-tagged PARP2 (amino acids 1-583) (Homo sapiens, UniProt Q9UGN5); assay: PARP2 probe displacement HTRF assay; assay type: binding; conditions: binned Kd
T1 construct: N-terminally FLAG-tagged PARP2 (amino acids 1-583)
Description: Data analysis was performed identical as for PARP1.

PARP1 = target: T2, PARP1 (Homo sapiens, UniProt P09874); assay: NanoBRET cellular target occupancy assay, PARP1; assay type: cell-based; conditions: for Kd: HEK293 cells transiently transfected with PARP1-NanoLuc fusion, tracer 11 nM, 2 hours at 37° C., Kd by Cheng-Prussoff; for Selectivity: NanoBRET, PARP1 over PARP2, Kd (PARP2)/Kd (PARP1)
T2 construct: host or cells: HEK293
T2 sequence (P09874 whole entry, the tested form may be a part): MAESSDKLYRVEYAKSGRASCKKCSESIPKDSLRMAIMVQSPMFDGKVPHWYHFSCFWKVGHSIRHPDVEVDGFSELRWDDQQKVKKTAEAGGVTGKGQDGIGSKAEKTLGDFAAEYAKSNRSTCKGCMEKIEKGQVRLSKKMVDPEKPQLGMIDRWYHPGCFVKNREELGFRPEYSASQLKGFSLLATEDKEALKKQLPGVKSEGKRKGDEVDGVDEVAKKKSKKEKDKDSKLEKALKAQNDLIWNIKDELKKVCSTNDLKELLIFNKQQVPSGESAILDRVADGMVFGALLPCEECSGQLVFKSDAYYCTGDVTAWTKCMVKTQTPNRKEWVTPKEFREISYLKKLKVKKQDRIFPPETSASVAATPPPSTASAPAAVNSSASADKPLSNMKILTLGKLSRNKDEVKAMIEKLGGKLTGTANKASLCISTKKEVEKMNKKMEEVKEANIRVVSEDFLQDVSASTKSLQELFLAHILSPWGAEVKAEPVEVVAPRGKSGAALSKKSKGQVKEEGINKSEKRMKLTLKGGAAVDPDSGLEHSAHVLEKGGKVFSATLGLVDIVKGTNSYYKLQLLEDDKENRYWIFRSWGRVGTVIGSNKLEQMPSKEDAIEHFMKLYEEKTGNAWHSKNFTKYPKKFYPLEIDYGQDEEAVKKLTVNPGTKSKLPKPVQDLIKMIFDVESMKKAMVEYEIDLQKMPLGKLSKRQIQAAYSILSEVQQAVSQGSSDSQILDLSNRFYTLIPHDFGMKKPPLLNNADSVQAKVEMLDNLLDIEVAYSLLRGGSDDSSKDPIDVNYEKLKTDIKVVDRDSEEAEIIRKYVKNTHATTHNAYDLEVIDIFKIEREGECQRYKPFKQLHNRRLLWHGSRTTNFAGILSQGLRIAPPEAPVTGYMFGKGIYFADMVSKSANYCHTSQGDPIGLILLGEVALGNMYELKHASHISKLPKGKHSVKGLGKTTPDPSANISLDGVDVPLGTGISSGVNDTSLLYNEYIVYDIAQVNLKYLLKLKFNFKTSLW

PARP2 = target: T3, PARP2 (Homo sapiens, UniProt Q9UGN5); assay: NanoBRET cellular target occupancy assay, PARP2; assay type: cell-based; conditions: HEK293 cells transiently transfected with PARP2-NanoLuc fusion; tracer 2 nM; 2 hours at 37° C.; Kd by Cheng-Prussoff
T3 construct: host or cells: HEK293
T3 sequence (Q9UGN5 whole entry, the tested form may be a part): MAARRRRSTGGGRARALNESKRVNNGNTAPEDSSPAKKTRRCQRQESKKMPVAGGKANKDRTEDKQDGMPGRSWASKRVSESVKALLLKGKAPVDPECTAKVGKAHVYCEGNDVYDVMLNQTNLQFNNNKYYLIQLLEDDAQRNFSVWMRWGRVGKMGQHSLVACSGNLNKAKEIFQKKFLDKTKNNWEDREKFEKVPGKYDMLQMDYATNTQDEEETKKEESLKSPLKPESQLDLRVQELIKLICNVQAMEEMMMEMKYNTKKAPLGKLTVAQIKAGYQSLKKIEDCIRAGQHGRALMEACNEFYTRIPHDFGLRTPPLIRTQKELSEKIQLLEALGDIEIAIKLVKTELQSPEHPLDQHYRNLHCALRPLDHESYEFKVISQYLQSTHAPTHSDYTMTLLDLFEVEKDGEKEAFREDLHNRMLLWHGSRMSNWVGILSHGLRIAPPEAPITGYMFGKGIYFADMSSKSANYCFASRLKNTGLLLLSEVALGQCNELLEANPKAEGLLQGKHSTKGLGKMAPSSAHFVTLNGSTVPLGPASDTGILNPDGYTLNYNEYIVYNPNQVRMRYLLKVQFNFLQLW
Description: NanoBRET Cellular Target Occupancy Assay

[2] = target: T4, full length N-terminally FLAG-tagged PARP1 (Homo sapiens, UniProt P09874); assay: PARP1 probe displacement HTRF assay; conditions: for Selectivity: PARP1 over PARP2, ratio Kd (PARP2)/Kd (PARP1); for Kd: binned Kd
T4 sequence (P09874 whole entry): as the sequence (P09874 whole entry, the tested form may be a part) above

[3] = target: T4, full length N-terminally FLAG-tagged PARP1; assay: PARP1 biochemical DELFIA assay (auto-PARylation); set-up: recombinant full length human N-terminally FLAG-tagged PARP1
[4] = read-out: PARP1 HTRF, PARP1 probe displacement HTRF
[5] = binned IC50, PARP1 biochemical DELFIA assay
[6] = PARP1 HTRF, probe displacement HTRF
[7] = binned IC50, biochemical auto-PARylation assay
[8] = read-out: PARP1 HTRF, probe displacement HTRF

T1 sequence (Q9UGN5 whole entry, the tested form may be a part): as the sequence (Q9UGN5 whole entry, the tested form may be a part) above

Kd ([1]; PARP2 probe displacement HTRF) [µM]	Kd (PARP1) [µM]	Kd (PARP2) [µM]	Kd [2, 4] [µM]	IC50 [3, 5] [µM]	Kd ([1]; probe displacement HTRF) [µM]	Kd [2, 6] [µM]	IC50 [3, 7] [µM]	Kd [2, 8] [µM]	Structure (SMILES)	Selectivity (PARP1)	Selectivity ([2]; probe displacement HTRF)
–	< 0.01	> 10	–	–	1 to 10	< 0.01	< 0.01	–	CNC(=O)c1ccc(N2CCC(N3CC4(c5nc6cccc(F)c6c(=O)[nH]5)CC3C4)CC2)c(F)n1 [Compound 228]	+++ (+++ indicate a value of at least 100)	+++ (+++ indicate a value of at least 100)
–	< 0.01	0.01 to 0.1	–	–	0.01 to 0.1	–	< 0.01	< 0.01	O=C(NC1CC1)c1ccc(N2CCC(N3CCC(c4cc5cccc(F)c5c(=O)[nH]4)C3)CC2)cn1 (single isomer, unassigned) [Compound 339a]	+ (+ indicates a value of 10 to less than 50)	+ (+ indicates a value of 10 to less than 50)
–	< 0.01	> 10	–	–	1 to 10	–	< 0.01	< 0.01	CNC(=O)c1ccc(N2CCC(N3CCC(c4cc5ncc(Cl)cc5c(=O)[nH]4)C3)CC2)c(F)n1 (single isomer, unassigned) [Compound 344b]	+++ (+++ indicate a value of at least 100)	+++ (+++ indicate a value of at least 100)
–	0.01 to 0.1	> 10	–	–	> 10	< 0.01	< 0.01	–	CCc1cnc(C23CC(C2)N(C2CCN(c4ccc(C(=O)NC)nc4)CC2)C3)[nH]c1=O [Compound 299, 5-(4-(4-(5-ethyl-6-oxo-1,6-dihydropyrimidin-2-yl)-2-azabicyclo[2.1.1]hexan-2-yl)piperidin-1-yl)-N-methylpicolinamide]	+++ (+++ indicate a value of at least 100)	+++ (+++ indicate a value of at least 100)
–	< 0.01	1 to 10	–	–	1 to 10	–	< 0.01	< 0.01	CCc1ccc(C2CCN(C3CCN(c4ccc(C(=O)NC)nc4Cl)CC3)C2)[nH]c1=O (single isomer, unassigned) [Compound 239b]	+++ (+++ indicate a value of at least 100)	+++ (+++ indicate a value of at least 100)
–	< 0.01	0.1 to 1	–	–	0.1 to 1	–	< 0.01	< 0.01	CNC(=O)c1ccc(N2CCC(N3CCC(c4cc5ccc(F)cc5c(=O)[nH]4)C3)CC2)c(Cl)n1 (single isomer, unassigned) [Compound 223b]	+++ (+++ indicate a value of at least 100)	+++ (+++ indicate a value of at least 100)
–	< 0.01	1 to 10	–	–	0.1 to 1	< 0.01	< 0.01	–	CNC(=O)c1ccc(N2CCC(N3CCC(c4cc5c(c(=O)[nH]4)CCCC5)C3)CC2)c(F)n1 (single isomer, unassigned) [Compound 337a, 6-fluoro-N-methyl-5-(4-(3-(1-oxo-1,2,5,6,7,8-hexahydroisoquinolin-3-yl)pyrrolidin-1-yl)piperidin-1-yl)picolinamide]	+++ (+++ indicate a value of at least 100)	+++ (+++ indicate a value of at least 100)
–	< 0.01	0.1 to 1	–	–	0.1 to 1	–	< 0.01	< 0.01	CCc1ccc(C2CCN(C3CCN(c4ccc(C(=O)NC5CC5)nc4F)CC3)C2)[nH]c1=O (single isomer, unassigned) [Compound 353a]	+++ (+++ indicate a value of at least 100)	+++ (+++ indicate a value of at least 100)
–	< 0.01	0.1 to 1	–	–	0.1 to 1	–	< 0.01	< 0.01	CNC(=O)c1ccc(N2CCC(N3CCC(c4cc5ncc(F)cc5c(=O)[nH]4)C3)CC2)cn1 (racemic) [Compound 315rac]	+++ (+++ indicate a value of at least 100)	+++ (+++ indicate a value of at least 100)
–	< 0.01	> 10	–	–	1 to 10	< 0.01	< 0.01	–	CCc1cnc(C23CC(C2)N(C2CCN(c4ccc(C(=O)NC)nc4F)CC2)C3)[nH]c1=O [Compound 300]	+++ (+++ indicate a value of at least 100)	+++ (+++ indicate a value of at least 100)
–	< 0.01	0.1 to 1	–	–	0.1 to 1	–	< 0.01	< 0.01	CNC(=O)c1ccc(N2CCC(N3CCC(c4[nH]c(=O)c5ccccc5c4F)C3)CC2)cn1 (racemic) [Compound 258rac]	+++ (+++ indicate a value of at least 100)	+++ (+++ indicate a value of at least 100)
–	< 0.01	> 10	–	–	1 to 10	< 0.01	< 0.01	–	CNC(=O)c1ccc(N2CCC(N3CC4(c5nc6ccccc6c(=O)[nH]5)CC3C4)CC2)c(F)n1 [Compound 260]	+++ (+++ indicate a value of at least 100)	+++ (+++ indicate a value of at least 100)

The remaining lines, values behind:

Structure (SMILES)	Kd ([1]; PARP2 probe displacement HTRF) [µM]	Kd (PARP1) [µM]	Kd (PARP2) [µM]	Kd [2, 4] [µM]	IC50 [3, 5] [µM]	Kd ([1]; probe displacement HTRF) [µM]	Kd [2, 6] [µM]	IC50 [3, 7] [µM]	Kd [2, 8] [µM]	Selectivity (PARP1)	Selectivity ([2]; probe displacement HTRF)
CCc1ccc(C2CCN(C3CCN(c4ccc(C(=O)NC)nc4Cl)CC3)C2)[nH]c1=O (racemic) [Compound 144rac]	1 to 10	< 0.01	> 10	< 0.01	< 0.01	–	–	–	–	+++ (+++ indicate a value of at least 100)	+++ (+++ indicate a value of at least 100)
CNC(=O)c1ccc(N2CCC(N3CCC(c4nc5ccccc5c(=O)[nH]4)C3)CC2)cn1 (single isomer, unassigned) [Compound 10b, N-methyl-5-(4-(3-(4-oxo-3,4-dihydroquinazolin-2-yl)pyrrolidin-1-yl)piperidin-1-yl)picolinamide]	0.1 to 1	< 0.01	1 to 10	< 0.01	< 0.01	–	–	–	–	+++ (+++ indicate a value of at least 100)	+++ (+++ indicate a value of at least 100)
CNC(=O)c1ccc(N2CCC(N3CCC(c4cc5c(F)ccc(F)c5c(=O)[nH]4)C3)CC2)cn1 (single isomer, unassigned) [Compound 180b]	0.01 to 0.1	< 0.01	0.1 to 1	< 0.01	< 0.01	–	–	–	–	+++ (+++ indicate a value of at least 100)	++ (++ indicates a value of 50 to less than 100)
CNC(=O)c1ccc(N2CCC(N3CCC(c4cc5ccc(F)cc5c(=O)[nH]4)C3)CC2)nn1 (single isomer, unassigned) [Compound 197a]	0.1 to 1	< 0.01	0.1 to 1	< 0.01	< 0.01	–	–	–	–	+++ (+++ indicate a value of at least 100)	+++ (+++ indicate a value of at least 100)
CNC(=O)c1ccc(N2CCC(N3CCC(c4cc5cccc(F)c5c(=O)[nH]4)C3)CC2)cn1 (single isomer, unassigned) [Compound 136b, 5-{4-[3-(8-fluoro-1-oxo-2H-isoquinolin-3-yl)pyrrolidin-1-yl]piperidin-1-yl}-N-methylpyridine-2-carboxamide]	0.01 to 0.1	< 0.01	0.1 to 1	< 0.01	< 0.01	–	–	–	–	+++ (+++ indicate a value of at least 100)	+++ (+++ indicate a value of at least 100)
CNC(=O)c1ccc(N2CCC(N3CCC(c4nc5ccc(F)cc5c(=O)[nH]4)C3)CC2)cn1 (single isomer, unassigned) [Compound 64b]	0.1 to 1	< 0.01	0.1 to 1	< 0.01	< 0.01	–	–	–	–	+++ (+++ indicate a value of at least 100)	+++ (+++ indicate a value of at least 100)
CNC(=O)c1ccc(N2CCC(N3CCC(c4cc5cccc(F)c5c(=O)[nH]4)C3)CC2)c(Cl)n1 (single isomer, unassigned) [Compound 183b]	0.1 to 1	< 0.01	1 to 10	< 0.01	< 0.01	–	–	–	–	+++ (+++ indicate a value of at least 100)	+++ (+++ indicate a value of at least 100)
CNC(=O)c1ccc(N2CCC(N3CCC(c4cc5ccc(Cl)cc5c(=O)[nH]4)C3)CC2)cn1 (single isomer, unassigned) [Compound 129b]	0.01 to 0.1	< 0.01	0.1 to 1	< 0.01	< 0.01	–	–	–	–	+++ (+++ indicate a value of at least 100)	+++ (+++ indicate a value of at least 100)
CNC(=O)c1ccc(N2CCC(N3CCC(c4nc5cccc(C(F)(F)F)c5c(=O)[nH]4)C3)CC2)cn1 (single isomer, unassigned) [Compound 86b]	< 0.01	< 0.01	0.01 to 0.1	< 0.01	< 0.01	–	–	–	–	+ (+ indicates a value of 10 to less than 50)	+ (+ indicates a value of 10 to less than 50)
